In patent US10782292B2, “Antibiotic susceptibility testing via plasmonic imaging and tracking” (priority 2015, dated 2020):
“Also recorded” adds a separate entry of the source.

Key:
E. coli O157:H7 [1] = test: Plasmonic imaging and tracking (PIT) of Z-movement (nanomotion) of single antibody-tethered bacterial cells; format: cell-based
E. coli O157:H7 [2] = test: Culturing in LB medium after antibiotic treatment on the sensor chip (validation of cell death); format: cell-based
From the text: […] the addition of polymyxin B, Z-movement decreases from ±5 nm to ±0.5 nm, which is close to the Brownian motion of a dead bacterium. We further validated the metabolic state by culturing and elongating the tethered cell in standard Luria Broth (LB) media before adding the antibiotic.
Referring now to FIG. […] PMB is a bactericidal antibiotic which kills Gram-negative bacteria by permeabilizing the outer membrane.^60 At high concentrations, […], PMB also depolarizes the cytoplasmic membrane, causing ion-permeable pores in the cell envelope.^30 Within a few seconds after adding the antibiotic, there was a marked decrease in the Z-movement of the bacterial cell from about ±3 to about ±1 nm. We further observed that after a few minutes, the bacterial cell Z-movement reached a baseline value of ±0.5 nm. […] The decrease in bacterial cell length has been previously correlated to cell lysis and cell death after the addition of polypeptide antibiotics.^69 We validated the correlation between the decreases in nanomotion and change of the bacterial metabolic state by replacing the antibiotic-containing PBS with LB medium (lacking PMB) on the sensor chip. […] We subsequently collected a small sample volume from the above sensor chip and subjected it to culturing overnight in LB medium.
(§1) Referring now specifically to FIG. 3D, there shown are control experiment data comparing Z-movement in PBS 102 and on injections of 2% glucose 104, 1×PBS 106, and antibiotic 108. […] After subsequently eliminating glucose in the 1×PBS medium, the amplitude of the nanomotion, measured over 1 s windows for 20 s videos, decreased back to the level prior to the injection of glucose (as shown in FIG. 3E). The positive correlation between glucose injection and Z-movement strongly supports that bacterial cell nanomotion originates from metabolic activity rather than Brownian motion.

[3] = system: UPEC E. coli strain CFT073; test: PIT of Z-movement (nanomotion) of UPEC cells immobilized with APTES linker; format: cell-based; conditions: PMB 1 mg/mL, APTES surface, 1×PBS, FIG. 12
Procedure: We immobilized the UPEC strain on the sensor using the (3-aminopropyl)-triethoxysilane (APTES) linker, rather than using the antibody immobilization for the E. coli O157:H7 study described above. We studied the nanomotion changes as antibiotic PMB acted on bacterial cells at a bactericidal concentration of 1 mg/mL. […] These experiments indicate that the methods may be used for different bacterial strains and different antibiotics. To fully establish the present method for rapid AST in clinical settings, additional and more comprehensive tests will still be needed in the future.
An aliquot of frozen E. coli O157:H7 or E. coli CFT073 strain was thawed and used to inoculate 10 mL of LB medium. […]
All plasmonic imaging sequences were collected at 106 fps at a pixel resolution of 640×480. […] Images were recorded in either transmitted or plasmonic imaging mode for various time durations. […]
More specifically, the plasmonic image intensity was calculated by obtaining averaged intensity within a fixed area around the bacterial cell using the bare gold chip regions as reference. The Z-distance of the bacterial cell above the sensor surface was then calculated from the plasmonic image intensity (Iz) with a calibrated curve, given by Iz=I0 exp(−Δz/L), where I0 is a constant, Δz is the z displacement of a bacterial cell, and L is the decay constant. […]

Gram-negative bacteria = conditions: literature reference 30; cited from earlier work
UPEC strain = test: Overnight culturing in LB medium after antibiotic treatment (validation of cell death), UPEC; format: cell-based, E. coli CFT073; conditions: after PMB 1 mg/mL
E. coli O157:H7 [4] = test: Transmitted microscope image of bacterial cell length after adding antibiotic; format: cell-based
Procedure: Referring now to FIG. 3C the effect of antibiotic polymycin B at a concentration of 500 μg/mL on Z-movement of a bacterial cell is shown. […] PMB is a bactericidal antibiotic which kills Gram-negative bacteria by permeabilizing the outer membrane.^60 At high concentrations, such as […] used in this study, PMB also depolarizes the cytoplasmic membrane, causing ion-permeable pores in the cell envelope.^30 Within a few seconds after adding the antibiotic, there was a marked decrease in the Z-movement of the bacterial cell from about ±3 to about ±1 nm. We further observed that after a few minutes, the bacterial cell Z-movement reached a baseline value of ±0.5 nm. […]
as §1, with “The positive correlation between glucose injection and Z-movement strongly supports that bacterial cell nanomotion originates from metabolic activity rather than Brownian motion.” left out
All plasmonic imaging sequences were collected at 106 fps at a pixel resolution of 640×480. […] Images were recorded in either transmitted or plasmonic imaging mode for various time durations.

| Molecule | Change in nanomotion (Z-movement) after streptomycin (E. coli O157:H7 [1]; streptomycin 1 mg/mL, PBS supplemented with LB (0.4×LB media), FIG. 13) | Overnight culturing after streptomycin (E. coli O157:H7 [2]; after streptomycin 1 mg/ml) | Change in nanomotion (Z-movement) of UPEC cells ([3]; listed as PMB) | Change in nanomotion (Z-movement) of UPEC cells ([3]; listed as polymycin B) | Concentration at which bactericidal activity has been observed (Gram-negative bacteria) [g/mL] | Change in nanomotion (Z-movement) at sub-bactericidal concentration (E. coli O157:H7 [1]; 0.5 μg/ml (b80 prints 0.5 g/mL), after 20 min, 1×PBS, FIG. 10, listed as PMB) | Change in nanomotion (Z-movement) at 5× bactericidal concentration (E. coli O157:H7 [1]; 100 μg/m, 1×PBS, FIG. 10, listed as PMB) | Change in nanomotion after antibiotic in glucose control experiment (E. coli O157:H7 [1]; PMB 75 µg/mL (bactericidal concentration), FIG. 3D) | Change in Z-motion of a bacterial cell after adding antibiotic (E. coli O157:H7 [1]; added at t=120 s, FIG. 3A) | Nanomotion after replacing antibiotic-containing PBS with LB medium (E. coli O157:H7 [1]; after PMB 500 µg/mL, LB lacking PMB) | Overnight culturing in LB medium of UPEC sample (UPEC strain; listed as PMB) | Overnight culturing in LB medium of UPEC sample (UPEC strain; listed as polymycin B) | Cell length in transmitted microscope image after antibiotic (E. coli O157:H7 [4]; PMB 75 µg/mL, FIG. 11) | Bacterial cell length after adding antibiotic (E. coli O157:H7 [4]; high antibiotic concentration (500 g/mL study)) | Bacterial growth on overnight culturing in LB medium (E. coli O157:H7 [2]; after PMB 75 µg/mL) | Cellular growth on subsequent incubation in LB media (E. coli O157:H7 [2]; after polymyxin B 75 μg/ml) | Growth of bacterial cells after overnight incubation in LB medium (E. coli O157:H7 [2]; sample from sensor chip after PMB 500 µg/mL) |
| --- | --- | --- | --- | --- | --- | --- | --- | --- | --- | --- | --- | --- | --- | --- | --- | --- | --- |
| [H]/N=C(/N)N[C@H]1[C@H](O)[C@@H](O)[C@H](O[C@@H]2O[C@@H](C)[C@](O)(C=O)[C@H]2O[C@@H]2O[C@@H](CO)[C@H](O)[C@@H](O)[C@@H]2NC)[C@@H](N/C(N)=N\[H])[C@@H]1O [streptomycin] | decrease in nano-motion; also recorded: decrease in the nanomotion | confirmed the death of the bacteria |  |  |  |  |  |  |  |  |  |  |  |  |  |  |  |
| Polymyxin B |  |  | decrease in bacterial nanomotion | large decrease in the nano-motion | 20 | did not observe changes in the nanomotion; also recorded: does not change the Z-movement | significant decrease in nanomotion; also recorded: large decrease in Z-movement | decrease in bacterial nanomotion | large drop in Z-motion | no further change in the bacterial nanomotion | no bacterial growth | confirmed the death of the bacteria | visible decrease in cell length | decreases in bacterial cell length | no bacterial growth | did not lead to cellular growth | no growth of bacterial cells |
